Tests used:
K562 cells = experiment: Cytotoxicity assay (CellTiter-Glo); format: cell-based, human
Procedure: Twenty types of tumor cell lines were seeded at 4000 cells per well in 96-well plates. […] Cell viability was measured with the CellTiter-Glo Luminescent Cell Viability Assay (Promega) according to the manufacturer's instructions. Luminescence was measured using an EnVision Multilabel Plate Reader (Perkin-Elmer). The cytotoxicity of TGI1002 was expressed as the percentage of luminescence relative to that of untreated cells.

HT-29 cells = experiment: Cytotoxicity assay (CellTiter-Glo); format: cell-based, human; details: 120 h, panel of 20 tumor cell lines
Procedure: (§1) Twenty types of tumor cell lines were seeded at 4000 cells per well in 96-well plates. TGI1002 dissolved in phosphate saline was added to cells at final concentrations ranging from 0.5 nM to 100 μM for 120 h. Cell viability was measured with the CellTiter-Glo Luminescent Cell Viability Assay (Promega) according to the manufacturer's instructions. Luminescence was measured using an EnVision Multilabel Plate Reader (Perkin-Elmer). The cytotoxicity of TGI1002 was expressed as the percentage of luminescence relative to that of untreated cells.

PC-3 cells = experiment: Cytotoxicity assay (CellTiter-Glo); format: cell-based, human; details: 120 h, panel of 20 tumor cell lines
Procedure: as §1

PP2A = experiment: PP2Ac immunoprecipitation phosphatase assay in K562 cells; format: cell-based, human; details: 10 μM, 24 h
Procedure: PP2A assay from whole cell lysates was carried out using commercial PP2Ac immunoprecipitation phosphatase assay kit (Millipore). Briefly, 200 μg protein lysates prepared as described above, 4 μg PP2Ac-specific antibody, and 40 μL protein A-agarose were added to TBS buffer (20 mM Tris-HCl, 150 mM NaCl, and 0.1% Tween 20) to a final volume of 500 μL and immunoprecipitation was carried out at 4 °C for 2 h. The immunoprecipitates were used in the phosphatase reaction following the manufacturer's protocol.

SET-PP2A interaction = molecular target: T1, SET-PP2A interaction (Homo sapiens, UniProt Q01105); experiment: Co-immunoprecipitation of SET and PP2Ac in K562 cells; format: cell-based; details: 24 h
T1 construct: SET and PP2Ac protein complexes were immunoprecipitated; endogenous in cells; host or cells: K562
Procedure: Protein samples (40 μg) were resolved on SDS-PAGE gels, transferred onto PVDF membranes (Millipore) and incubated overnight with primary antibodies to β-tubulin, BCR-ABL, p-BCR-ABL, SET, PP2Ac and p-PP2Ac. The membranes were incubated with horseradish peroxidase (HRP)-conjugated secondary antibody for 1 h, and the bands were visualized using an ECL detection kit following the manufacturer's instructions. For immunoprecipitation, cells were lysed in 20 mM Tris-HCl (pH 7.0), 150 mM NaCl, 1 mM EDTA, 1 mM MgCl and 0.5% NP-40 supplemented with a cocktail of protease and phosphatase inhibitors (Roche). Lysates (200 μg) were incubated with primary antibodies (1 μg) against SET or PP2Ac at 4 °C for 10 h, protein A/G plus agarose beads were then added for immunoprecipitation overnight at 4 °C. After wash, the immunoprecipitated proteins were separated by SDS-PAGE and analyzed by Western blotting.

tubulin = experiment: Microtubule assembly assay in K562 cells; format: cell-based, human; details: 24 h
Procedure: Separation of insoluble polymerized tubulin from soluble tubulin dimers and analysis of the effects of TGI1002 on tubulin polymerization were performed as described previously. In brief, K562 cells at a density of 1 × 10^6/100 mm^2 dishes were treated with indicated concentrations of TGI1002 at 24 h. Cells were washed with PBS for three times before adding polymerization lysate buffer containing 20 mM Tris-HCl (pH6.8), 1 mM MgCl2, 2 mM EGTA, […] aprotinin, […] leupeptin, 1 mM phenylmethylsulfonyl fluoride, 1 mM orthovanadate and 0.5% Nonidet. After centrifugation at 15,000 x g for 10 min at 4 °C, the pellets were resuspended in SDS-PAGE loading buffer and dissolved by heating at 95 °C for 10 min. Beta-tubulin was then Western blotted from both pellets (containing polymerized microtubules) and supernatants (containing depolymerized microtubules).

[1] = tested on: BaF3-p210^T315I tumor xenografts; experiment: In vivo anti-tumor efficacy, subcutaneous xenograft; design: species or system BALB/c mice; details: for inhibition of tumor growth, in terms of tumor volume: day 20 post-injection of BaF3-p210^T315I cells
Procedure: BABL/c male mice from SLRC Experimental Animal Center were bred under pathogen-free conditions and were used for experiments at 6-8 weeks of age. Animal experiments were performed according to institutional and national guidelines. BaF3-p210^T315I cells were implanted subcutaneously into the right flank of nude mice (200 μL of a 1 × 10^7cells suspension in serum free medium). When tumors became large enough for caliper measurement, tumor volumes were calculated as (length × width^2) × 0.5. […] At the end of the experiments, tumors were dissected and photographed, and wet weights of each tumor were measured.

BaF3-p210^T315I cells = experiment: Survival study, intravenously injected tumor cells; format: in vivo, BALB/c mice; details: 30 mg/kg i.p. once daily from day 5; vehicle 25.5 days
Procedure: In survival study, BaF3-p210^T315I cells were injected into the tail vein of BALB/c mice (100 μL of a 1 × 10^7 cells suspension in serum free medium). […] Moribund animals were sacrificed as per institutional and national guidelines. Survival data were analyzed by the Kaplan Meier method and compared using the log-rank test.

[2] = tested on: K562 cells expressing SET shRNA; experiment: Cytotoxicity in K562 cells with stable SET knock-down (shRNA); format: cell-based, human; details: SET knock-down vs control K562 cells
Procedure: as §1
Lentivirus-encoded shRNA against human SET (GenBank No.: NM_003011) and a noncoding gene (negative control) were prepared by Genechem and titered to 2 × 10^8 (TU/mL). K562 cells (1 × 10^4 cells/well) were seeded in 96-well plates overnight before transfection. The virus (10 μL) was mixed with 90 μL complete medium containing polybrene (5 μg/mL) and added to cells and incubated for 12 h at 37 °C. Then, the cells were incubated in fresh complete RPMI 1640 medium for 72 h, followed by incubation in complete medium containing puromycin (5 μg/mL). After 2 weeks of selection, individual clones were isolated, passaged and harvested for subsequent studies. Identification of stable SET-knockdown K562 cell line was performed by Western blotting. Effects of TGI1002 on cell viability of SET-knockdown K562 cells were studied as described above.

T1 sequence (Q01105 whole entry): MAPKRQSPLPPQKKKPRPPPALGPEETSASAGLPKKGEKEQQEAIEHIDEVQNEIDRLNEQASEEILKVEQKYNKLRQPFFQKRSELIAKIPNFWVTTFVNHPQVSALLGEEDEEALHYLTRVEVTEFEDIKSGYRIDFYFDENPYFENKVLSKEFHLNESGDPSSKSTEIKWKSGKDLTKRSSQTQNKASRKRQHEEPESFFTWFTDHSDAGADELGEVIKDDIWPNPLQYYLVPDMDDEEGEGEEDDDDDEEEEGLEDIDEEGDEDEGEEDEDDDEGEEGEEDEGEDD

Structure (SMILES): Cc1ccc(NC(=O)c2cccc(CN3CCN(C)CC3)c2)cc1Oc1nccc(-c2cccnc2)n1.Cl [TGI1002, N-(4-methyl-3-((4-(pyridin-3-yl)-pyrimidin-2-yl)oxy)phenyl)-3-((4-methylpiperazin-1-yl)methyl)benzamide hydrochloride]
- IC50 (K562 cells; Homo sapiens, 72 h, cell viability): 11 ± 1.98 µM
- fold less potent than imatinib (K562 cells; IC50 at 72 h): approximately 35 fold
- cytotoxicity (HT-29 cells): cytotoxic effects
- cytotoxicity (PC-3 cells): cytotoxic effects
- PP2A activity enhanced compared to untreated cells (PP2A): 144.67 ± 5.51%
- association between SET and PP2A (SET-PP2A interaction): trend of decrease
- amounts of tubulin in depolymerized fraction S and polymerized fraction P (tubulin): not affected
- inhibition of tumor growth, in terms of tumor volume ([1]; 30 mg/kg i.p. daily): 51.07%
- inhibition of tumor growth, in terms of tumor volume ([1]; 45 mg/kg i.p. daily): 53.15%
- inhibition of tumor growth, in terms of tumor volume ([1]; 60 mg/kg i.p. daily): 68.01%
- body weight ([1]; 30, 45 and 60 mg/kg i.p. daily, tumor-bearing mice): without loss of body weight
- final tumor volume and weight compared to vehicle group ([1]; TGI1002 30, 45, 60 mg/kg, imatinib, ponatinib 10 mg/kg, i.p. daily): markedly lower
- median survival (BaF3-p210^T315I cells): 32.5 days
- sensitivity of K562 cells to treatment after SET-specific shRNA [2]: decreased the sensitivity

Source: PMC4494927, “Discovery of a small molecule targeting SET-PP2A interaction to overcome BCR-ABLT315I mutation of chronic myeloid leukemia” (Oncotarget, 2015)
